Results taken from US20100041661A1, “CASPASE INHIBITORS BASED ON PYRIDAZINONE SCAFFOLD” (LG Life Sciences Ltd., priority 2006, published 2010).

Experiments:
[1] = biological target: T1, caspase-8 (Homo sapiens, UniProt Q14790); assay: Assay for the caspase inhibitory effect (fluorescent substrate AcDEVD-AFC); type: biochemical; conditions: pH 7.5; 2.1 nM caspase-8, 50 μM AcDEVD-AFC, 25° C., pH 7.50; read-out: Caspase-8 Kobs/[I] (converted)
T1 construct: p10 and p20 subunits (Thornberry, N. A. et al, Nature, 1992, 356, 768) were expressed in E. coli; made in house; host or cells: E. coli
T1 sequence (Q14790 217-374 limits assumed, species assumed): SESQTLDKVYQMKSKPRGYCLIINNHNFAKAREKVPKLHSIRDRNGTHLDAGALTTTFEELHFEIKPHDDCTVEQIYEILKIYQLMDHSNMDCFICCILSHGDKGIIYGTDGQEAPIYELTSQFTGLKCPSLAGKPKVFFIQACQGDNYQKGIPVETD
T1 sequence (Q14790 385-479 limits assumed, species assumed): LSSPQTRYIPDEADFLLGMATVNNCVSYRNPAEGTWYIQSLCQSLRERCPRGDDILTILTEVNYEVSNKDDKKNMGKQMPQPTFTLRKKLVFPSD
Protocol: Caspase-1 and caspase-8 known as cysteine proteases in the form of α2β2 were expressed, purified, and activated by modifying a method known in Thornberry, N. A. et al, Nature, 1992, 356, 768; Thornberry, N. A. Methods in Enzymology, 1994, 244, 615; Walker, N. P. C. et al. Cell, 1994, 78, 343, and caspase-9 was also purified by a similar method, and the inhibitory activity against them was tested. Briefly describing, p10 and p20 subunits (Thornberry, N. A. et al, Nature, 1992, 356, 768) were expressed in E. coli and purified by nickel column and anionic exchange chromatography to give caspase-1, caspase-8 and caspase-9. The fluorescent substrates AcYVAD-AFC for thus obtained caspase-1, AcDEVD-AFC for caspase-8, and AcLEHD-AFC for caspase-9, were used for determining specific activity of the synthesized inhibitors. The enzyme reaction was carried out at 25° C. with various concentrations of the inhibitors in a buffer solution containing 50 mM HEPES (pH 7.50), 10% (w/v) sucrose, 0.1% (w/v) CHAPS, 100 mM NaCl, 1 mM EDTA, and 10 mM DTT in the presence of 50 μM AcYVAD-AFC for 10 nM caspase-1, 50 μM AcDEVD-AFC for 2.1 nM caspase-8, and 150 μM AcLEHD-AFC for 200 nM caspase-9. The inhibitory constants Ki and Kobs of the inhibitors were determined by measuring the reaction velocity with the time lapse using a fluorescent spectrometer and by obtaining the initial rate constant. Ki was calculated from the Lineweaver Burk Plot, and Kobs from the following Equation 1.
Kobs=−ln(1−At/Aoo)/t [Equation 1]
At means cleavage rate (%) at time t, and
Aoo means the maximum cleavage rate (%).
Spectra MAX GeminiXS Fluorescent Spectrometer of Molecular Device Co. was used at the excitation wavelength of 405 nm and the emission wavelength of 505 nm.

[2] = system: Jurkat cell (ATCC TIB-152); assay: Fas antibody-induced apoptosis of Jurkat cells, WST-1 method; type: cell-based; conditions: Homo sapiens, apoptosis induced by Fas antibody, alive cells by WST-1
Protocol: The […] inhibitory activity of the inhibitors was determined by subjecting Jurkat cell (ATCC TIB-152) to apoptosis using Fas antibody (Upstate Biotech 05-201) and by detecting the color change according to the WST-1 method known in Francoeur A. M. and Assalian A. (1996) Biochemica 3, 19-25 to observe the amount of alive Jurkat cells when the cells were treated by the inhibitor. Spectra MAX 340 Spectrometer of Molecular Device Co. was used at the absorbance wavelength of 440 nm.

kinact/KI [1] [M⁻¹ s⁻¹] | IC50 [2] [nM] | Structure (SMILES)
3330 |  | Cc1cc(Cc2ccccc2C(C)(C)C)c(=O)n(CC(=O)N[C@@H](CC(=O)O)C(=O)COc2c(F)c(F)cc(F)c2F)n1 [Example 4, (S)-3-{2-[5-(2-tert-Butyl-benzyl)-3-methyl-6-oxo-6H-pyridazin-1-yl]-acetylamino}-4-oxo-5-(2,3,5,6-tetrafluoro-phenoxy)-pentanoic acid]
33300 | 330 | CCC(C(=O)N[C@@H](CC(=O)O)C(=O)COc1c(F)c(F)cc(F)c1F)n1nc(C)cc(Cc2ccccc2C(C)(C)C)c1=O (stereo partly drawn) [Example 2, (S)-3-{2-[5-(2-tert-Butyl-benzyl)-3-methyl-6-oxo-6H-pyridazin-1-yl]-butyrylamino}-4-oxo-5-(2,3,5,6-tetrafluoro-phenoxy)-pentanoic acid]
91700 | 140 | CCC(C(=O)NC(CC(=O)O)C(=O)CF)n1nc(C)cc(Cc2ccccc2C(C)(C)C)c1=O (stereo not drawn) [Example 1, 3-{2-[5-(2-tert-Butyl-benzyl)-3-methyl-6-oxo-6H-pyridazin-1-yl]-butyrylamino}-5-fluoro-4-oxo-pentanoic acid]
6670 |  | Cc1cc(Cc2ccccc2C(C)(C)C)c(=O)n(C(C)C(=O)N[C@@H](CC(=O)O)C(=O)COc2c(F)c(F)cc(F)c2F)n1 (stereo partly drawn) [Example 3, (S)-3-{2-[5-(2-tert-Butyl-benzyl)-3-methyl-6-oxo-6H-pyridazin-1-yl]-propionylamino}-4-oxo-5-(2,3,5,6-tetrafluoro-phenoxy)-pentanoic acid]
2830 |  | CCC(C(=O)N[C@@H](CC(=O)O)C(=O)COc1c(F)c(F)cc(F)c1F)n1nc(Cc2ccccc2C(C)(C)C)ccc1=O (stereo partly drawn) [Example 6, (S)-3-{2-[3-(2-tert-Butyl-benzyl)-6-oxo-6H-pyridazin-1-yl]-butyrylamino}-4-oxo-5-(2,3,5,6-tetrafluoro-phenoxy)-pentanoic acid]
33300 | 170 | CCC(C(=O)N[C@@H](CC(=O)O)C(=O)COc1c(F)c(F)cc(F)c1F)n1nccc(Cc2ccccc2C(C)(C)C)c1=O (stereo partly drawn) [Example 5, (S)-3-{2-[5-(2-tert-Butyl-benzyl)-6-oxo-6H-pyridazin-1-yl]-butyrylamino}-4-oxo-5-(2,3,5,6-tetrafluoro-phenoxy)-pentanoic acid]
